Assay results taken from ChEMBL document CHEMBL1151656, “Cucurbitacin B and isocucurbitacin B: cytotoxic components of Helicteres isora” (1985).

Assay: Cytotoxicity against human 9KB cells
Assay type: functional

Row | Structure (SMILES) | ED50
1 | CC(=O)OC(C)(C)/C=C/C(=O)[C@](C)(O)[C@H]1[C@H](O)C[C@@]2(C)[C@@H]3CC=C4[C@H](C[C@H](O)C(=O)C4(C)C)[C@]3(C)C(=O)C[C@]12C [CUCURBITACIN B] | <1 ×10⁻⁵ ug/ml
2 | CC(=O)OC(C)(C)/C=C/C(=O)[C@@](C)(O)[C@H]1[C@H](O)C[C@@]2(C)[C@@H]3CC=C4[C@@H](CC(=O)[C@@H](O)C4(C)C)[C@]3(C)C(=O)C[C@]12C [ISOCUCURBITACIN B] | 7.6 ×10⁻⁵ ug/ml
